PubChem BioAssay (NCI)
“And” between values parts separate entries of the source, which are not always exact repeats. Equal values may be shown once.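 1) Cells in 96-well plates. 2) Compound, 48 h, 5 concentrations. 3) Linear interpolation between surrounding doses. 4) Unreached endpoint = highest concentration. GI50: concentration for 50% inhibition of growth. TGI is the concentration that stops growth completely.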

Tests used:
Assay in all cases: growth of human tumour cells (NCI), 48 h
[1] = test system: BT-549 breast
[2] = test system: CAKI-1 renal
[3] = test system: CCRF-CEM leukemia
[4] = test system: COLO 205 colon
[5] = test system: K-562 leukemia
[6] = test system: KM12 colon
[7] = test system: MDA-MB-435
[8] = test system: OVCAR-5 ovarian
[9] = test system: UO-31 renal
[10] = test system: SF-539 CNS

Row | SMILES | TGI [1] | TGI [2] [µM] | TGI [3] | TGI [4] [µM] | TGI [5] | TGI [6] | TGI [7] [µM] | TGI [8] | TGI [9] | GI50 [1] [µM] | GI50 [2] [µM] | GI50 [3] | GI50 [4] [µM] | GI50 [5] | GI50 [6] [µM] | GI50 [8] [µM] | GI50 [10] | TGI [10] | GI50 [9] [µM] | GI50 [7]
1 | O=C1CC(C(=O)O)Cc2c(Br)ccc(O)c21 (centres undefined) | > 100 µM | > 100 | > 100 µM | > 100 | > 100 µM | > 100 µM | > 100 | > 100 µM | > 100 µM |  |  |  |  |  |  |  |  |  |  | 
2 | COc1ccc(/C(=C/c2ccc3ccccc3c2)c2nn[nH]n2)cc1OC | > 100 µM | > 100 | > 100 µM | 6.56 | > 100 µM | > 100 µM |  | > 100 µM | > 100 µM | 10.9 | 2.24 | 3.33 µM | 2.27 | 0.678 µM | 2.79 | 6.08 | 2.38 µM | 7.94 µM | 5.59 | 
3 | Cc1cc(O[C@@H]2O[C@@H](C)[C@H](O)[C@@H](O)[C@H]2O)c2c3c(c(O[C@@H]4O[C@@H](C)[C@H](O)[C@@H](O)[C@H]4O)cc2c1)C(=O)c1c(O)cccc1C3=O | > 30 µM |  | > 30 µM | > 30 | > 30 µM | > 30 µM | > 30 | > 30 µM | > 30 µM | > 30 |  | > 30 µM | > 30 | > 30 µM | > 30 | > 30 | > 30 µM | > 30 µM | > 30 | > 30 µM
4 | CC12CCCC(C#N)(C1)OC2=O (centres undefined) |  | > 100 | > 100 µM |  | > 100 µM | > 100 µM |  | > 100 µM | > 100 µM |  |  |  |  |  |  |  |  | > 100 µM |  | 
5 | CN1C(c2ccccc2)CC(C)(O)CC1c1ccccc1 (centres undefined) |  | > 100 | > 100 µM | > 100 | > 100 µM | > 100 µM |  | > 100 µM | > 100 µM |  |  |  |  |  |  |  |  | > 100 µM |  | 
6 | NC(CP(=O)(O)O)C(=O)O (centres undefined) | > 100 µM | > 100 | > 100 µM | > 100 | > 100 µM | > 100 µM | > 100 | > 100 µM | > 100 µM |  |  |  |  |  |  |  |  |  |  | 
7 | COc1ccc(C2CC(c3ccccc3)=NN2C(=O)c2cc(OC)c(OC)c(OC)c2)cc1O (centres undefined) | 21.4 µM | > 100 | > 31.9 µM | 10.4 | 27.1 µM | 24.1 µM |  | > 65.5 µM | > 100 µM | 2 | 0.925 | 0.473 µM | 2.96 | 0.297 µM | 0.371 | 8.43 | 0.288 µM | 1.31 µM | 0.751 | 
8 | COc1cccc(CCNC(=O)CC(c2ccccc2)(c2ccccc2)c2ccccc2)c1 | > 100 µM | 50.9 | > 100 µM | > 100 | > 100 µM | > 100 µM | > 100 | > 100 µM | > 100 µM | > 100 | 3.16 | 8.16 µM | 12.8 | 6.03 µM | 4.75 | 11.7 |  |  | 4.75 | 6.5 µM
9 | [N-]=[N+]=NCCCn1c2c(c3ccc([N+](=O)[O-])cc3c1=O)C(=O)c1cc(I)ccc1-2 |  | > 100 | > 100 µM | > 100 | > 100 µM | > 100 µM | > 100 | > 100 µM | 45.6 µM |  | 9.38 | 0.416 µM | 40.4 | 5.15 µM | 18 | 41.2 | 2.23 µM | 8.51 µM | 3.82 | 34.3 µM
10 | O=C(O)CCC(=O)Oc1ccc(O)c2c1CCCC2=O |  |  | > 100 µM | > 100 | > 100 µM | > 100 µM |  | > 100 µM | > 100 µM |  |  |  |  |  |  |  |  | > 100 µM |  | 
11 | COC(=O)[C@H](Cc1ccccc1)NNC(=O)c1csc([C@@H](C[C@H](C(C)C)N(C)C(=O)[C@@H](NC(=O)[C@H]2CCCCN2C)C2CC2)OC(C)=O)n1 | 0.317 µM and 0.973 µM |  | 25 µM and > 100 µM |  | 25 µM and > 100 µM | 25 µM and > 100 µM |  | 25 µM and > 100 µM | 25 µM and > 100 µM |  |  | 0.00377 µM and 0.0025 µM and 0.0213 µM |  | 0.00302 µM and 0.0025 µM and 0.0243 µM |  |  | 0.00648 µM and 0.0315 µM | 0.0564 µM and 0.461 µM |  | 0.00165 µM and 0.0151 µM
12 | N#CC(C(=O)CCC(=O)Nc1ccc(Cl)cc1)c1ccc(Cl)cc1 (centres undefined) |  | > 100 | > 100 µM | > 100 | > 100 µM | > 100 µM |  | > 100 µM | > 100 µM |  |  |  |  |  |  |  |  | > 100 µM |  | 
13 | Cc1cc(Cl)ccc1NC(=O)CC1SC(=NC(=O)c2ccccc2Cl)NC1=O (centres undefined) |  | 33.9 | 8.66 µM |  | 47.6 µM |  |  | 84 µM | 44.6 µM |  |  |  |  |  |  |  |  | 35.4 µM |  | 
14 | O=C(CN(Cc1ccccc1)Cc1ccccc1)N1CCc2c([nH]c3ccccc23)C1c1cccnc1 (centres undefined) |  | > 100 | 41.4 µM |  | > 100 µM | 26.3 µM |  | 34.7 µM | 9.54 µM |  |  |  |  |  |  |  |  | 26.6 µM |  | 
15 | CCCCOC(=O)/C=C\C(=O)NC(N)=O |  | 9.23 | 35.8 µM | 29.1 | > 100 µM | 66.9 µM | 85 | 81.7 µM | 31 µM |  | 2.53 | 15.9 µM | 14 | 31.3 µM | 25 | 25.6 | 24.6 µM | 70 µM | 13.4 | 24.7 µM
16 | CCOC(=O)NC(=O)c1cn(CCCCCCCCCCC(=O)NCCCN2CCN(CCCNC(=O)CCCCCCCCCCn3cc(C(=O)NC(=O)OCC)c(=O)[nH]c3=O)CC2)c(=O)[nH]c1=O |  | > 10 | > 100 µM | > 100 | > 100 µM | > 100 µM |  | > 100 µM | > 100 µM |  |  |  |  |  |  |  |  | > 100 µM |  | 
17 | Cc1ccc2nc(Sc3c([N+](=O)[O-])ncn3C)[nH]c2c1 |  | 27.5 |  | 27.8 |  | > 100 µM |  | > 100 µM | 88.4 µM |  |  |  |  |  |  |  |  | 36.4 µM |  | 
